Experimental data reported in ChEMBL document CHEMBL6083208, “Integrating amino acids into Bcr-Abl inhibitors: design, synthesis, biological evaluation, and in silico studies” (RSC Med Chem, 2024).
Activity calls are given as the source filed them. No cut-off for these calls is given here.

Experiments:
[1] = biological target: Bcr/Abl fusion protein (Homo sapiens, UniProt P00519); test: Inhibition of wild type Bcr-Abl (unknown origin) using Abltide as substrate incubated for 1 hr by luminescence based ADP-glo assay; assay type: protein assay
[2] = Inhibition of Bcr-Abl T315Ialpha mutant (unknown origin) using Abltide as substrate incubated for 1 hr by luminescence based ADP-glo assay; design: species or system Homo sapiens
[3] = system: BaF3; test: Antiproliferative activity against mouse BaF3 cells harbouring Bcr-Abl T315I assessed of cell viability at 30 uM incubated for 72 hrs by Celltiter-glo luminescent cell viability assay relative to control; assay type: functional
[4] = system: BaF3; test: Antiproliferative activity against mouse BaF3 cells harbouring Bcr-Abl T315I assessed of cell viability at 10 uM incubated for 72 hrs by Celltiter-glo luminescent cell viability assay relative to control; assay type: functional
[5] = system: BaF3; test: Antiproliferative activity against mouse BaF3 cells harbouring Bcr-Abl T315I assessed of cell viability at 2 uM incubated for 72 hrs by Celltiter-glo luminescent cell viability assay relative to control; assay type: functional
[6] = system: HEK293; test: Antiproliferative activity against HEK293 cells after 48 hrs by MTT assay; assay type: toxicity, cell-based; design: concentration or dose not given beside the values; conditions: human, hek293, 48 h
[7] = system: THP-1; test: Antiproliferative activity against human THP-1 cells after 48 hrs by MTT assay; assay type: functional; design: concentration or dose not given beside the values
[8] = system: K562; test: Induction of apoptosis in human K562 cells assessed as viable cells at 1 uM measured after 48 hrs by annexin-V/FITC and propidium iodide double staining based flow cytometry analysis (reference value: 85.73%); assay type: functional; conditions: read-out: Activity
[9] = system: K562; test: Induction of apoptosis in human K562 cells assessed as viable cells at 10 uM measured after 48 hrs by annexin-V/FITC and propidium iodide double staining based flow cytometry analysis (reference value: 85.73%); assay type: functional; conditions: read-out: Activity
[10] = system: K562; test: Induction of apoptosis in human K562 cells assessed as viable cells at 15 uM measured after 48 hrs by annexin-V/FITC and propidium iodide double staining based flow cytometry analysis (reference value: 85.73%); assay type: functional; conditions: read-out: Activity
[11] = system: K562; test: Induction of apoptosis in human K562 cells assessed as early apoptotic cells at 1 uM measured after 48 hrs by annexin-V/FITC and propidium iodide double staining based flow cytometry analysis (reference value: 1.96%); assay type: functional
[12] = system: K562; test: Induction of apoptosis in human K562 cells assessed as early apoptotic cells at 10 uM measured after 48 hrs by annexin-V/FITC and propidium iodide double staining based flow cytometry analysis (reference value: 1.96%); assay type: functional
[13] = system: K562; test: Induction of apoptosis in human K562 cells assessed as early apoptotic cells at 15 uM measured after 48 hrs by annexin-V/FITC and propidium iodide double staining based flow cytometry analysis (reference value: 1.96%); assay type: functional
[14] = system: K562; test: Induction of apoptosis in human K562 cells assessed as late apoptotic cells at 1 uM measured after 48 hrs by annexin-V/FITC and propidium iodide double staining based flow cytometry analysis (reference value: 12.03%); assay type: functional
[15] = system: K562; test: Induction of apoptosis in human K562 cells assessed as late apoptotic cells at 10 uM measured after 48 hrs by annexin-V/FITC and propidium iodide double staining based flow cytometry analysis (reference value: 12.03%); assay type: functional
[16] = system: K562; test: Induction of apoptosis in human K562 cells assessed as late apoptotic cells at 15 uM measured after 48 hrs by annexin-V/FITC and propidium iodide double staining based flow cytometry analysis (reference value: 12.03%); assay type: functional
[17] = system: K562; test: Induction of apoptosis in human K562 cells assessed as necrotic cells at 1 uM measured after 48 hrs by annexin-V/FITC and propidium iodide double staining based flow cytometry analysis (reference value: 0.27%); assay type: functional
[18] = system: K562; test: Induction of apoptosis in human K562 cells assessed as necrotic cells at 10 uM measured after 48 hrs by annexin-V/FITC and propidium iodide double staining based flow cytometry analysis (reference value: 0.27%); assay type: functional
[19] = system: K562; test: Induction of apoptosis in human K562 cells assessed as necrotic cells at 15 uM measured after 48 hrs by annexin-V/FITC and propidium iodide double staining based flow cytometry analysis (reference value: 0.27%); assay type: functional
[20] = system: K562; test: Induction of cell cycle arrest in human K562 cells assessed as reduction in accumulation of cells at S phase at 1 to 15 uM measured after 48 hrs by PI staining based flow cytometry analysis; assay type: functional; conditions: dose 1-15 µM
[21] = system: K562; test: Induction of cell cycle arrest in human K562 cells assessed as increase in accumulation of cells at G0/G1 phase at 1 to 15 uM measured after 48 hrs by PI staining based flow cytometry analysis; assay type: functional; conditions: dose 1-15 µM
[22] = biological target: T1, Bcr/Abl fusion protein (Homo sapiens) (UniProt P00519+P11274); test: Inhibition of wild type BCR-ABL in human K562 cells assessed as inhibition of Bcr-Abl phosphorylation level at high concentration measured after 48 hrs by Western blot analysis; assay type: cell-based
[23] = biological target: T1, Bcr/Abl fusion protein (Homo sapiens); test: Inhibition of wild type BCR-ABL in human K562 cells assessed as inhibition of STAT5 phosphorylation level at high concentration measured after 48 hrs by Western blot analysis; assay type: cell-based
[24] = biological target: T1, Bcr/Abl fusion protein (Homo sapiens); test: Inhibition of wild type BCR-ABL in human K562 cells assessed as inhibition of Bcr-Abl phosphorylation level at 20 uM measured after 48 hrs by Western blot analysis; assay type: cell-based
[25] = biological target: T1, Bcr/Abl fusion protein (Homo sapiens); test: Inhibition of wild type BCR-ABL in human K562 cells assessed as inhibition of STAT5 phosphorylation level at 20 uM measured after 48 hrs by Western blot analysis; assay type: cell-based
[26] = system: K562; test: cells; conditions: Homo sapiens, K562, 48 h
[27] = system: K562; test: cells; conditions: Homo sapiens, K562, 48 h, read-out: Activity
[28] = system: K562; test: cells; conditions: Homo sapiens, K562, 48 h, read-out: Activity; remark: listed apart in the source
[29] = system: K562; test: cells; conditions: Homo sapiens, K562, 48 h, read-out: Activity; remark: listed apart in the source

T1 sequence (P00519 whole entry, looked up, the tested form may be a part): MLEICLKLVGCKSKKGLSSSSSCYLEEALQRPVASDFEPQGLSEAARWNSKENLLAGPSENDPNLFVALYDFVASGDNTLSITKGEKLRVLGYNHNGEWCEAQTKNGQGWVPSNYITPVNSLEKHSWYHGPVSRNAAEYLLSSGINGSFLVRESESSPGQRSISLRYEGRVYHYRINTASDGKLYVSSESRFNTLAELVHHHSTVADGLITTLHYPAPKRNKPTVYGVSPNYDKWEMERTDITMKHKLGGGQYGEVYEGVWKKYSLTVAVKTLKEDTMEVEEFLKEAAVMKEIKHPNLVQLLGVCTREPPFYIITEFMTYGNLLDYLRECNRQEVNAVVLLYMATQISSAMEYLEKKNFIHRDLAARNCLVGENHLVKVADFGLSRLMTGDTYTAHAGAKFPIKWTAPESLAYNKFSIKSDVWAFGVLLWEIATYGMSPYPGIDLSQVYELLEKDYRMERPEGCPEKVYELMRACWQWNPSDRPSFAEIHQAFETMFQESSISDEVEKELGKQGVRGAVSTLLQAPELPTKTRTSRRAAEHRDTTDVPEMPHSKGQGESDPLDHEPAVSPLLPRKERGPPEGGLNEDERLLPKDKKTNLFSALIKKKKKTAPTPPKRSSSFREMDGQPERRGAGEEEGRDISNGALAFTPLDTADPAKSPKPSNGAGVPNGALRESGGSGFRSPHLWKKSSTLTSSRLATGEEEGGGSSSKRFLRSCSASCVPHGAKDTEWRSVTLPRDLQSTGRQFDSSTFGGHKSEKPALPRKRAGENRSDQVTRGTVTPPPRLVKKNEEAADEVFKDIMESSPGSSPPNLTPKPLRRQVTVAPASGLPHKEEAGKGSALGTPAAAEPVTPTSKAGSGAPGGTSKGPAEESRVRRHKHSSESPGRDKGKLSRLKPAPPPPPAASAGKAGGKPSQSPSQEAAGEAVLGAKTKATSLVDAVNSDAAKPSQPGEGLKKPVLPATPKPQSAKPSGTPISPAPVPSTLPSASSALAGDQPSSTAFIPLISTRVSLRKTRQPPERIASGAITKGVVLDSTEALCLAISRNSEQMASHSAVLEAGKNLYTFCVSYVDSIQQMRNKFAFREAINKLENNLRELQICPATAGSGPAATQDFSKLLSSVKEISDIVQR
T1 sequence (P11274 whole entry, looked up, the tested form may be a part): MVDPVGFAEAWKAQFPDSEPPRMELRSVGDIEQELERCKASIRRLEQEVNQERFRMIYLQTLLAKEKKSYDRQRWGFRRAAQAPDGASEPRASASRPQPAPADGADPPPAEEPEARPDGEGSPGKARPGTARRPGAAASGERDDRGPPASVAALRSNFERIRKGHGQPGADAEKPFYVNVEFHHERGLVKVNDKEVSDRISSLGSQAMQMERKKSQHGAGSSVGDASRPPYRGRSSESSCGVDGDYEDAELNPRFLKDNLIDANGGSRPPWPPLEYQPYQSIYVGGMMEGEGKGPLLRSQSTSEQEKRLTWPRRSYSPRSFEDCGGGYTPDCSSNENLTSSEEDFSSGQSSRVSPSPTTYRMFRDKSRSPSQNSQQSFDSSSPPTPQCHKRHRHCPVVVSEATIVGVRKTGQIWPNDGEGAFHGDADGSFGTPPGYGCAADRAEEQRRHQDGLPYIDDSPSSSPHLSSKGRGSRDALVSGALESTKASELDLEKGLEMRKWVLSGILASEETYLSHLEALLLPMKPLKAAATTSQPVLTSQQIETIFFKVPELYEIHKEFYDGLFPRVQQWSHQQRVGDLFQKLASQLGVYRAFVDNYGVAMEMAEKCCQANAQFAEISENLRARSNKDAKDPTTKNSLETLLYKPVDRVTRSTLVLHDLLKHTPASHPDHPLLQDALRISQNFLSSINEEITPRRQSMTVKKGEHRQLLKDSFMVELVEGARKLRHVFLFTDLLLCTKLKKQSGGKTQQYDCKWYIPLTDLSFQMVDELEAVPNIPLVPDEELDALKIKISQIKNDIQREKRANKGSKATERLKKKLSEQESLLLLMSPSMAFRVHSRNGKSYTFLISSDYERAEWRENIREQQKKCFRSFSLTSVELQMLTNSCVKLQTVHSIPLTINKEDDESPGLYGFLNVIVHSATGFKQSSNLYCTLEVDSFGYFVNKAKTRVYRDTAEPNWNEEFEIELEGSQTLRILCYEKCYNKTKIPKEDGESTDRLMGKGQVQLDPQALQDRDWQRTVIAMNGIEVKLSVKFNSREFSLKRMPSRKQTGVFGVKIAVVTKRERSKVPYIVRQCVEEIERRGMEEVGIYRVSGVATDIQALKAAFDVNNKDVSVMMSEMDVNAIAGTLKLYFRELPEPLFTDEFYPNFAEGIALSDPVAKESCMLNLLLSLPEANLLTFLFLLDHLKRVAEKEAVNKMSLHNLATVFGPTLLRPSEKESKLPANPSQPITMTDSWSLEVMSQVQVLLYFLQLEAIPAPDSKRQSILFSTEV
Chain of Bcr/Abl fusion protein (P00519 whole entry, the tested form may be a part): as the sequence (P00519 whole entry, looked up, the tested form may be a part) above
Chain of Bcr/Abl fusion protein (P11274 whole entry, further chain, the tested form may be a part): as the sequence (P11274 whole entry, looked up, the tested form may be a part) above

Compound CC(C)(C)C(=O)Nc1cc(-c2ccc(C(=O)N[C@@H](CO)C(=O)Nc3ccc(Cl)c(C(F)(F)F)c3)cc2)ccn1 has an IC50 [1] of 5.01 nM, an IC50 [2] of 122 nM and an inhibition at 30 µM [3] of 99.2%. For the same compound, the inhibition at 10 µM [4] was 99.9%, the inhibition at 2 µM [5] was 0.2% and the Activity [6] was 87%. For the same compound, the Activity [7] was 54%, the viability at 1 µM [8] was 76.5% and the viability at 10 µM [9] was 74.4%. The viability at 15 µM [10] was 69.6%, the Activity [11] was 5.12% and the Activity [12] was 2.83%. For the same compound, the Activity [13] was 2.21%, the Activity [14] was 16.63% and the Activity [15] was 21.34%. The Activity [16] was 24.21%, the Activity [17] was 1.75% and the Activity [18] was 1.39%. For the same compound, the Activity [19] was 3.98%, the Activity [20] was “inactive” and the Activity [21] was “inactive”. For the same compound, the inhibition [22] was “Active”, the inhibition [23] was “Active” and the inhibition [24] was “Active”. For the same compound, the inhibition [25] was “Active” and the IC50 [26] was 2.04 nM.
Work on Cc1ccc(NC(=O)c2ccc(CN3CCN(C)CC3)cc2)cc1Nc1nccc(-c2cccnc2)n1 [IMATINIB] yielded an Activity [6] of 87%, an Activity [7] of 100% and an IC50 [26] of 2.03 nM. For the same compound, the viability at 1 µM [27] was 72.9%, the viability at 5 µM [28] was 74.3% and the viability at 10 µM [29] was 67.4%.
